Assay results published in patent US12280088B2, “Dry powder formulation of caveolin-1 peptides and methods of use thereof” (BOARD OF REGENTS, THE UNIVERSITY OF TEXAS SYSTEM, priority 2018, dated 2025).
In brackets after ≈: the same amount, converted by molar mass. Where two headings read alike, the source gives them in different places. Square brackets hold non-standard residues; d marks the D form. Peptide text beside a SMILES is read from it. Orn = NCCC[C@H](N)C(=O)O

Legend:
[1] = pH-solubility of polypeptide variants; assay type: physicochemical; details: read-out: pH-solubility, Concentration; for solubility thermodynamic at 3 min: a: precipitate, supernatant assayed; for solubility at 3 min: b: high viscous solution, aliquot assayed
Protocol: (§1) Solubility study of variants was performed by adding variants powders into solvent in concentration of 5 mg/ml and then vortexing for 3 min. Observe the appearance of solutions in 5 min. Add more powder (˜5 mg/ml each time) and repeat vortex and observe until precipitation or gelation occurs.

[2] = Appearance of solutions in solubility study of variants; assay type: physicochemical
Protocol: as §1

SMILES	solubility thermodynamic at 3 min ([1]; pH 4.5)	solubility thermodynamic at 3 min ([1]; pH 5.5)	solubility thermodynamic at 3 min ([1]; pH 6.5)	solubility thermodynamic at 3 min ([1]; pH 7.5)	solubility thermodynamic at 3 min ([1]; pH 8.5)	Appearance of solutions ([2]; pH 4.5, 5 mg/ml)	Appearance of solutions ([2]; pH 4.5, 10 mg/ml)	Appearance of solutions ([2]; pH 4.5, 15 mg/ml)	Appearance of solutions ([2]; pH 4.5, 20 mg/ml)	Appearance of solutions ([2]; pH 4.5, 25 mg/ml)	Appearance of solutions ([2]; pH 7.5, 5 mg/ml)	Appearance of solutions ([2]; pH 7.5, 10 mg/ml)	Appearance of solutions ([2]; pH 7.5, 15 mg/ml)	Appearance of solutions ([2]; pH 7.5, 20 mg/ml)	Appearance of solutions ([2]; pH 8.5, 5 mg/ml)	Appearance of solutions ([2]; pH 8.5, 10 mg/ml)	Appearance of solutions ([2]; pH 8.5, 15 mg/ml)	Appearance of solutions ([2]; pH 4.5, 40 mg/ml)	Appearance of solutions ([2]; pH 7.5, 25 mg/ml)	Appearance of solutions ([2]; pH 8.5, 20 mg/ml)	other results
CC(C)[C@H](NC(=O)[C@@H](NC(=O)[C@H](Cc1ccccc1)NC(=O)[C@@H](NC(=O)[C@@H](NC(=O)[C@H](Cc1ccccc1)NC(=O)[C@H](CO)NC(=O)[C@H](C)NC(=O)[C@@H](N)CCCN)[C@@H](C)O)[C@@H](C)O)[C@@H](C)O)C(=O)N[C@H](C(=O)N[C@@H](CCCN)C(=O)N[C@@H](CO)C(N)=O)[C@@H](C)O [SEQ ID NO.10, OASFTTFTVTOS-NH2] (H-[Orn]ASFTTFTVT[Orn]S-NH2)	33.9 ± 0.9 mg/mL (≈ 26.3 mM)	3.6 ± 0.8 mg/mL (≈ 2.79 mM)	5.5 ± 0.7 mg/mL (≈ 4.27 mM)	19.1 ± 0.1 mg/mL (≈ 14.8 mM)	14.6 ± 1.6 mg/mL (≈ 11.3 mM)	Clear	Clear	Clear	Clear	Clear	Clear	Clear	Clear	Clear	Clear	Clear	Clear	–	–	–	–
CC(C)[C@H](N)C(=O)N[C@H](C(=O)N[C@@H](CCCCN)C(=O)N[C@@H](Cc1ccc(O)cc1)C(=O)N[C@@H](Cc1c[nH]c2ccccc12)C(=O)N[C@@H](Cc1ccccc1)C(=O)N[C@@H](Cc1ccc(O)cc1)C(=O)N[C@@H](CCCNC(=N)N)C(N)=O)[C@@H](C)O [SEQ ID NO.22] (H-VTKYWFYR-NH2)	57.2 ± 9.1 mg/mL (≈ 49.2 mM)	2.98 ± 0.1 mg/mL (≈ 2.57 mM)	3.49 ± 0.6 mg/mL (≈ 3.01 mM)	61.5 ± 1.7 mg/mL (≈ 53 mM)	29.1 ± 3.5 mg/mL (≈ 25.1 mM)	Clear	Clear	Clear	Clear	Clear	Clear	Clear	Clear	Clear	Clear	Clear	Clear	Clear	Clear	Clear	Appearance of solutions ([2]; pH 4.5, 30 mg/ml): Clear; Appearance of solutions ([2]; pH 4.5, 35 mg/ml): Clear; Appearance of solutions ([2]; pH 4.5, 45 mg/ml): Clear; Appearance of solutions ([2]; pH 4.5, 50 mg/ml): Clear; Appearance of solutions ([2]; pH 4.5, 55 mg/ml): Clear; Appearance of solutions ([2]; pH 4.5, 60 mg/ml): Clear; Appearance of solutions ([2]; pH 7.5, 30 mg/ml): Clear; Appearance of solutions ([2]; pH 7.5, 35 mg/ml): Clear; Appearance of solutions ([2]; pH 7.5, 40 mg/ml): Clear; Appearance of solutions ([2]; pH 7.5, 45 mg/ml): Clear; Appearance of solutions ([2]; pH 7.5, 50 mg/ml): Clear; Appearance of solutions ([2]; pH 7.5, 55 mg/ml): Clear; Appearance of solutions ([2]; pH 7.5, 60 mg/ml): Clear; Appearance of solutions ([2]; pH 7.5, 65 mg/ml): Turbid
CC[C@H](C)[C@H](NC(=O)CNC(=O)[C@@H](N)CC(=O)O)C(=O)N[C@@H](Cc1c[nH]c2ccccc12)C(=O)N[C@@H](CCCCN)C(=O)N[C@@H](C)C(=O)N[C@@H](CO)C(=O)N[C@@H](Cc1ccccc1)C(N)=O [SEQ ID NO.21] (H-DGIWKASF-NH2)	0.62 ± 0.04 mg/mL (≈ 0.672 mM)	0.14 ± 0.02 mg/mL (≈ 0.152 mM)	0.26 ± 0.07 mg/mL (≈ 0.282 mM)	0.25 ± 0.03 mg/mL (≈ 0.271 mM)	0.17 ± 0.04 mg/mL (≈ 0.184 mM)	–	–	–	–	–	–	–	–	–	–	–	–	–	–	–	–
CC(C)[C@H](NC(=O)[C@@H](NC(=O)[C@H](Cc1ccccc1)NC(=O)[C@@H](NC(=O)[C@@H](NC(=O)[C@H](Cc1ccccc1)NC(=O)[C@H](CO)NC(=O)[C@H](C)NC(=O)[C@H](CCCCN)NC(=O)CNC(=O)[C@H](CCC(=O)O)NC(=O)[C@@H](C)NC(=O)[C@@H](C)N)[C@@H](C)O)[C@@H](C)O)[C@@H](C)O)C(=O)N[C@H](C(=O)N[C@@H](CCCCN)C(=O)NCC(=O)N[C@@H](CO)C(=O)N[C@H](C)C(=O)N[C@H](C)C(N)=O)[C@@H](C)O [SEQ ID NO.7] (H-[dA][dA]EGKASFTTFTVTKGS[dA][dA]-NH2)	–	22.3 ± 0.1 mg/mL (≈ 12.1 mM)	–	–	–	Clear	Clear	Clear	Clear	Clear	Clear	Clear	Clear	Clear	Clear	Clear	Clear	Gel	Clear	Clear	solubility at 3 min ([1]; pH 4.5): ≥ 32 mg/mL; solubility at 3 min ([1]; pH 6.5): ≥ 30.5 mg/mL; solubility at 3 min ([1]; pH 7.5): ≥ 35.3 mg/mL; solubility at 3 min ([1]; pH 8.5): ≥ 23.8 mg/mL; Appearance of solutions ([2]; pH 5.5, 5 mg/ml): Clear; Appearance of solutions ([2]; pH 5.5, 10 mg/ml): Clear; Appearance of solutions ([2]; pH 5.5, 15 mg/ml): Clear; Appearance of solutions ([2]; pH 8.5, 25 mg/ml): Clear
CC(C)[C@H](NC(=O)[C@@H](NC(=O)[C@H](Cc1ccccc1)NC(=O)[C@@H](NC(=O)[C@@H](NC(=O)[C@H](Cc1ccccc1)NC(=O)[C@H](CO)NC(=O)[C@H](C)NC(=O)[C@@H](N)CCCCN)[C@@H](C)O)[C@@H](C)O)[C@@H](C)O)C(=O)N[C@H](C(=O)N[C@@H](CCCCN)C(=O)NCC(=O)N[C@@H](CO)C(=O)O)[C@@H](C)O [SEQ ID NO.4] (H-KASFTTFTVTKGS-OH)	25.4 ± 0.8 mg/mL (≈ 18.5 mM)	4 ± 0.2 mg/mL (≈ 2.91 mM)	5.9 ± 0.4 mg/mL (≈ 4.29 mM)	16.7 ± 0.5 mg/mL (≈ 12.1 mM)	10.8 ± 1.1 mg/mL (≈ 7.86 mM)	Clear	Clear	Clear	Clear	Clear	Clear	Clear	–	–	Clear	Clear	–	–	–	–	–
CC(=O)N[C@H](C)C(=O)N[C@H](C)C(=O)N[C@@H](CCC(=O)O)C(=O)NCC(=O)N[C@@H](CCCCN)C(=O)N[C@@H](C)C(=O)N[C@@H](CO)C(=O)N[C@@H](Cc1ccccc1)C(=O)N[C@H](C(=O)N[C@H](C(=O)N[C@@H](Cc1ccccc1)C(=O)N[C@H](C(=O)N[C@H](C(=O)N[C@H](C(=O)N[C@@H](CCCCN)C(=O)NCC(=O)N[C@@H](CO)C(=O)N[C@H](C)C(=O)N[C@H](C)C(N)=O)[C@@H](C)O)C(C)C)[C@@H](C)O)[C@@H](C)O)[C@@H](C)O [SEQ ID NO.8] (Ac-[dA][dA]EGKASFTTFTVTKGS[dA][dA]-NH2)	–	23.6 ± 0.6 mg/mL (≈ 12.5 mM)	27.3 ± 1.2 mg/mL (≈ 14.5 mM)	28.3 ± 2.2 mg/mL (≈ 15 mM)	20.6 ± 2.4 mg/mL (≈ 10.9 mM)	Clear	Clear	Clear	Clear	Gel	Clear	Clear	Clear	–	Clear	Clear	Clear	–	–	Clear	solubility at 3 min ([1]; pH 4.5): ≥ 24.2 mg/mL; Appearance of solutions ([2]; pH 5.5, 5 mg/ml): Clear
